IC50 data for 20 compounds are collected here from US20120238549A1, “Nuclear Hormone Receptor Modulators” (ABBOTT LABORATORIES, priority 2011, published 2012).

For orientation: IC50 means the concentration needed to halve the response being measured.

This assay deals with T1, Glucocorticoid Receptor (GR) (Homo sapiens, UniProt P04150).
T1 construct: purchased Invitrogen P2893
T1 sequence (P04150 1-777): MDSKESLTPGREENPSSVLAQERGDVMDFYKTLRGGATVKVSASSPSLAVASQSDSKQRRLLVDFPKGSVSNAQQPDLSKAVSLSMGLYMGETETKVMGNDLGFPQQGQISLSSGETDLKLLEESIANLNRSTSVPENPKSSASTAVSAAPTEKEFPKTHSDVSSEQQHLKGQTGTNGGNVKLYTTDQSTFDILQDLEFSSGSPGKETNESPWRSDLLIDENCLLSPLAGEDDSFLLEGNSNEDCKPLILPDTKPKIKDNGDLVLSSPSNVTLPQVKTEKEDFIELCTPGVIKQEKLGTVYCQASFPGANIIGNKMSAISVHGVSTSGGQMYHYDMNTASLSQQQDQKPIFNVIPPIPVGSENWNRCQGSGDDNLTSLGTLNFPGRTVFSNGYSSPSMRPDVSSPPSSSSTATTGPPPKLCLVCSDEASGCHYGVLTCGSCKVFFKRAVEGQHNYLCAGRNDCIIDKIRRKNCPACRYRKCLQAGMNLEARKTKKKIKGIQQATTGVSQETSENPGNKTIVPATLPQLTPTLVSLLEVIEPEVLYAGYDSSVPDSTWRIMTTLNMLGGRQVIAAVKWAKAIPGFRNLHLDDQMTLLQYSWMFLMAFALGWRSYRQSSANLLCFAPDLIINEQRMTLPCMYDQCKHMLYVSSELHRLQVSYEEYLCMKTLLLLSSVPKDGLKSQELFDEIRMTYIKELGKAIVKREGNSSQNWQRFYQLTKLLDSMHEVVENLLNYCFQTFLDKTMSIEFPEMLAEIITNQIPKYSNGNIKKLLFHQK
Kind of assay: GR Florescence Polarization Assay (PolarScreen Glucocorticoid Receptor Competitor Assay, Red). The following applies: Fluorescense polarization binding ranges; competition with fluorescent glucocorticoid, incubated overnight at 4° C. Summed up: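 Competitive fluorescence polarization using fluorescent glucocorticoid tracer and human GR in kit buffer. Compounds serially diluted 1:4 in DMSO, incubated with tracer and GR overnight at 4 °C before polarization read.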
Compound `Cc1ncccc1NC(=O)c1ccc2c(c1)CN(C)C[C@@H]1C[C@@](O)(C(F)(F)F)CC[C@@]21Cc1ccccc1` [Example 117, (3R,4aR,11bS)-11b-Benzyl-3-hydroxy-6-methyl-N-(2-methylpyridin-3-yl)-3-(trifluoromethyl)-2,3,4,4a,5,6,7,11b-octahydro-1H-dibenzo[c,e]azepine-9-carboxamide] showed a half-inhibitory concentration (IC50) of 100 to 1000 nM.

Turning to `C#C[C@]1(O)CC[C@@]2(Cc3ccccc3)c3ccc(C(=O)Nc4cccnc4C)cc3CCC[C@H]2C1` (racemic) [Example 32, (7aS,9S,11aS)-11a-Benzyl-9-ethynyl-9-hydroxy-6,7,7a,8,9,10,11,11a-octahydro-5H-dibenzo[a,c]cycloheptene-3-carboxylic acid (2-methyl-pyridin-3-yl)-amide; compound with (7aR,9R,11aR)-11a-benzyl-9-ethynyl-9-hydroxy-6,7,7a,8,9,10,11,11a-octahydro-5H-dibenzo[a,c]cyclo heptene-3-carboxylic acid (2-methyl-pyridin-3-yl)-amide], the IC50 was less than 100 nM.

On to `CC[C@@]1(O)CC[C@@]2(Cc3ccccc3)c3ccc(C(=O)Nc4cc(C)nn4C)cc3CCC[C@H]2C1` [Example 76], for which the half-maximal inhibitory concentration (IC50) is less than 100 nM.

Consider `CC[C@@]1(O)CC[C@@]2(Cc3ccccc3)c3ccc(C(=O)Nc4ncc(C)nc4C)cc3CCC[C@H]2C1` [Example 69], for which the concentration for half-maximal inhibition (IC50) is less than 100 nM.

`CCC[C@@]1(O)CC[C@@]2(CC)c3ccc(C(=O)Nc4ccccc4N)cc3CCC[C@H]2C1` (racemic) [Example 145, (7aS,9R,11aR)-11a-Ethyl-9-hydroxy-9-propyl-6,7,7a,8,9,10,11,11a-octahydro-5H-dibenzo[a,c]cycloheptene-3-carboxylic acid (2-amino-phenyl)-amide; compound with (7aR,9S,11aS)-11a-ethyl-9-hydroxy-9-propyl-6,7,7a,8,9,10,11,11a-octahydro-5H-dibenzo[a,c]cycloheptene-3-carboxylic acid (2-amino-phenyl)-amide] gave an IC50 of less than 100 nM.

The compound `CC[C@@]12CC[C@](O)(c3ccccc3)C[C@@H]1CCCc1cc(C(=O)Nc3cccnc3C)ccc12` (single isomer, unassigned) [Example 122] gave an IC50 of less than 100 nM.

For the compound `Cc1ncccc1NC(=O)c1ccc2c(c1)CCC[C@H]1C[C@@](O)(COCC(F)(F)F)CC[C@@]21Cc1ccccc1` (racemic) [Example 95], the IC50 is less than 100 nM.

`CC#C[C@]1(O)CC[C@@]2(Cc3ccccc3)c3ccc(C(=O)Nc4cccnc4C)cc3CCC[C@H]2C1` (racemic) [Example 29, (7aS,9S,11aS)-11a-Benzyl-9-hydroxy-9-prop-1-ynyl-6,7,7a,8,9,10,11,11a-octahydro-5H-dibenzo[a,c]cycloheptene-3-carboxylic acid (2-methyl-pyridin-3-yl)-amide; compound with (7aR,9R,11aR)-11a-benzyl-9-hydroxy-9-prop-1-ynyl-6,7,7a,8,9,10,11,11a-octahydro-5H-dibenzo[a,c]cycloheptene-3-carboxylic acid (2-methyl-pyridin-3-yl)-amide] came in with a 50% inhibitory concentration (IC50) of 100 to 1000 nM.

On to `Cc1ncccc1NC(=O)c1ccc2c(c1)CCC[C@@H]1C[C@@](O)(C(F)(F)F)CC[C@@]21Cc1ccccc1` [Example 106, (7aR,9R,11aS)-11a-Benzyl-9-hydroxy-9-trifluoromethyl-6,7,7a,8,9,10,11,11a-octahydro-5H-dibenzo[a,c]cycloheptene-3-carboxylic acid (2-methyl-pyridin-3-yl)-amide], for which the half-inhibitory concentration (IC50) was less than 100 nM.

As for `CC[C@@]1(O)CC[C@@]2(Cc3ccccc3)c3ccc(C(=O)Nc4cccnc4C)cc3C(=O)CC[C@H]2C1` (racemic) [Example 23, (7aS,9R,11aS)-11a-Benzyl-9-ethyl-9-hydroxy-5-oxo-6,7,7a,8,9,10,11,11a-octahydro-5H-dibenzo[a,c]cycloheptene-3-carboxylic acid (2-methyl-pyridin-3-yl)-amide; compound with (7aR,9S,11aR)-11a-benzyl-9-ethyl-9-hydroxy-5-oxo-6,7,7a,8,9,10,11,11a-octahydro-5H-dibenzo[a,c]cycloheptene-3-carboxylic acid (2-methyl-pyridin-3-yl)-amide], the half-maximal inhibitory concentration (IC50) was less than 100 nM.

On to `CC[C@@]1(O)CC[C@@]2(Cc3ccccc3)c3ccc(C(=O)Nc4cc(C)[nH]n4)cc3CCC[C@H]2C1` [Example 79], for which the concentration for half-maximal inhibition (IC50) is less than 100 nM.

`CC[C@]12CC[C@@](O)(CC3CC3)C[C@H]1CCCc1cc(C(=O)Nc3cccnc3C)ccc12` [Example 50] showed a half-inhibitory concentration (IC50) of 100 to 1000 nM.

As for `CCC[C@@]12CC[C@](O)(Cc3ccccc3)C[C@@H]1CCCc1cc(C(=O)Nc3cccnc3C)ccc12.CCC[C@]12CC[C@@](O)(Cc3ccccc3)C[C@H]1CCCc1cc(C(=O)Nc3cccnc3C)ccc12` [Example 34, (7aS,9R,11aR)-9-Benzyl-9-hydroxy-11a-propyl-6,7,7a,8,9,10,11,11a-octahydro-5H-dibenzo[a,c]cycloheptene-3-carboxylic acid (2-methyl-pyridin-3-yl)-amide; compound with (7aR,9S,11aS)-9-benzyl-9-hydroxy-11a-propyl-6,7,7a,8,9,10,11,11a-octahydro-5H-dibenzo[a,c]cycloheptene-3-carboxylic acid (2-methyl-pyridin-3-yl)-amide], the IC50 is less than 100 nM.

With `CCC[C@@]1(O)CC[C@@]2(CC(F)(F)F)c3ccc(C(=O)Nc4cccnc4C)cc3CCC[C@H]2C1` (racemic) [Example 52], the 50% inhibitory concentration (IC50) is less than 100 nM.

In turn, `O=C1C=C2CCCc3cc(O)ccc3C2(Cc2ccccc2)CC1` (centres unmarked) [Example 2, 11b-Benzyl-9-hydroxy-1,2,5,6,7,11b-hexahydro-dibenzo[a,c]cyclohepten-3-one] showed an IC50 of 100 to 1000 nM.

In turn, `CC[C@@]1(O)CC[C@@]2(Cc3ccccc3)c3ccc(C(=O)Nc4cccnc4C)cc3CCC[C@H]2C1.CC[C@]1(O)CC[C@]2(Cc3ccccc3)c3ccc(C(=O)Nc4cccnc4C)cc3CCC[C@@H]2C1` [Example 12, (7aS,9R,11aS)-11a-Benzyl-9-ethyl-9-hydroxy-6,7,7a,8,9,10,11,11a-octahydro-5H-dibenzo[a,c]cycloheptene-3-carboxylic acid (2-methyl-pyridin-3-yl)-amide; compound with (7aR,9S,11aR)-11a-benzyl-9-ethyl-9-hydroxy-6,7,7a,8,9,10,11,11a-octahydro-5H-dibenzo[a,c]cycloheptene-3-carboxylic acid (2-methyl-pyridin-3-yl)-amide] showed an IC50 of less than 100 nM.

`Oc1ccc2c(c1)CCC[C@H]1C[C@@](O)(c3ccccc3)[C@H](O)C[C@@]21Cc1ccccc1` (racemic) [Example 42, (2R,3R,4aS,11bR)-11b-Benzyl-3-phenyl-2,3,4,4a,5,6,7,11b-octahydro-1H-dibenzo[a,c]cycloheptene-2,3,9-triol compound with (2S,3S,4aR,11bS)-11b-benzyl-3-phenyl-2,3,4,4a,5,6,7,11b-octahydro-1H-dibenzo[a,c]cycloheptene-2,3,9-triol] had a concentration for half-maximal inhibition (IC50) of 100 to 1000 nM.

In turn, `Cc1ncccc1NC(=O)c1ccc2c(c1)CCC[C@H]1CC(=O)CC[C@@]21Cc1ccccc1` (racemic) [Example 11, (7aS,11aS)-11a-Benzyl-9-oxo-6,7,7a,8,9,10,11,11a-octahydro-5H-dibenzo[a,c]cycloheptene-3-carboxylic acid (2-methyl-pyridin-3-yl)-amide; compound with (7aR,11aR)-11a-benzyl-9-oxo-6,7,7a,8,9,10,11,11a-octahydro-5H-dibenzo[a,c]cycloheptene-3-carboxylic acid (2-methyl-pyridin-3-yl)-amide] displayed an IC50 of less than 100 nM.

`Cc1ncccc1NC(=O)c1ccc2c(c1)CCC[C@@H]1C[C@@](O)(C(F)(F)F)CC[C@@]21Cc1ccccc1` (racemic) [Example 3, (7aR,9R,11aS)-11a-Benzyl-9-hydroxy-9-trifluoromethyl-6,7,7a,8,9,10,11,11a-octahydro-5H-dibenzo[a,c]cycloheptene-3-carboxylic acid (2-methyl-pyridin-3-yl)-amide; compound with (7aS,9S,11aR)-11a-benzyl-9-hydroxy-9-trifluoromethyl-6,7,7a,8,9,10,11,11a-octahydro-5H-dibenzo[a,c]cycloheptene-3-carboxylic acid (2-methyl-pyridin-3-yl)-amide] showed a half-maximal inhibitory concentration (IC50) of less than 100 nM.

With `Cc1ncccc1NC(=O)c1ccc2c(c1)CCCC1=C[C@](C)(O)CC[C@]12Cc1ccccc1` (racemic) [Example 19, (9R,11aS)-11a-Benzyl-9-hydroxy-9-methyl-6,7,9,10,11,11a-hexahydro-5H-dibenzo[a,c]cycloheptene-3-carboxylic acid (2-methyl-pyridin-3-yl)-amide; compound with (9S,11aR)-11a-benzyl-9-hydroxy-9-methyl-6,7,9,10,11,11a-hexahydro-5H-dibenzo[a,c]cycloheptene-3-carboxylic acid (2-methyl-pyridin-3-yl)-amide], the IC50 is less than 100 nM.
